What was measured:
[1] = tested on: panel of seven bacterial strains; test: Antibacterial growth assay (OD600), statements on the whole panel; format: cell-based; conditions: growth after 48 h
[2] = tested on: Micrococcus luteus DSM 20030; test: Antibacterial growth assay (OD600); conditions: for Antibacterial activity (in words): M. luteus DSM 20030, growth after 48 h; for Bacterial growth relative to medium, M. luteus, replicate 1 / Bacterial growth relative to medium, M. luteus, replicate 2 / Bacterial growth relative to medium, M. luteus, replicate 3: OD600, medium = 100, MH II broth, 37 °C, peptide 200 µM mixed 50 µL + 50 µL with bacteria, Figure 7: 48 h; for Bacterial growth relative to medium, M. luteus, replicate 1: replicate column 1; for Bacterial growth relative to medium, M. luteus, replicate 2: replicate column 2; for Bacterial growth relative to medium, M. luteus, replicate 3: replicate column 3
[3] = tested on: Staphylococcus epidermidis DSM 28319; test: Antibacterial growth assay (OD600); conditions: OD600, medium = 100, MH II broth, 37 °C, peptide 200 µM mixed 50 µL + 50 µL with bacteria, Figure 7: 48 h; for Bacterial growth relative to medium, S. epidermidis, replicate 1: replicate column 1; for Bacterial growth relative to medium, S. epidermidis, replicate 2: replicate column 2; for Bacterial growth relative to medium, S. epidermidis, replicate 3: replicate column 3
Method: Cryo-conserved cultures of selected bacterial strains (Table 4) were transferred to Tryptic Soy Agar (TSA) plates (Carl Roth) with a sterile inoculation loop, sealed with Parafilm (BEMIS, Neenah, WI, USA), and incubated for 1–2 days at 37 °C depending on growth. Single colonies were picked and transferred into 2–3 mL of the Mueller–Hinton II (MH II) broth (BD, Heidelberg, Germany). The bacteria were cultivated overnight, subcultured on fresh medium and grown for 3–4 h before testing at 37 °C, with shaking at 180 rpm. We measured the optical density at 600 nm (OD600) of 1 mL of the bacterial suspensions in polystyrene cuvettes (SARSTED, Nümbrecht, Germany) using an Ultrospec 10 spectrophotometer (Biochrome, Cambridge, UK). We then diluted them with the MH II medium to the preferred OD600 (Table 2). The peptides were dissolved in DMSO to generate 10 mmol/L stocks and diluted with the MH II medium to 200 µM before the assay. We used 10 µg/mL (~40 µg/mL for S. epidermidis) gentamicin and colistin (Sigma-Aldrich, Taufkirchen, Germany), DMSO and the medium only as controls. The bacteria were transferred to 96-multiwell plates with a final volume of 100 µL per well (50 µL bacterial suspension, and 50 µL test peptide). The OD600 was measured at 0, 24 and 48 h using a BioTek Eon microplate reader followed by analysis with Gen5 v2.09.

[4] = tested on: B/Malaysia/2506/2004 (B-Mal); format: cell-based, influenza virus
[5] = tested on: Pseudomonas aeruginosa DSM 1117; test: Antibacterial growth assay (OD600); conditions: OD600, medium = 100, MH II broth, 37 °C, peptide 200 µM mixed 50 µL + 50 µL with bacteria, Figure 7: 48 h; for Bacterial growth relative to medium, P. aeruginosa (1117), replicate 1: replicate column 1; for Bacterial growth relative to medium, P. aeruginosa (1117), replicate 2: replicate column 2; for Bacterial growth relative to medium, P. aeruginosa (1117), replicate 3: replicate column 3
A/Hamburg/05/2009 (H1N1) = format: cell-based, influenza virus
[6] = tested on: Escherichia coli BL21(DE3); test: Antibacterial growth assay (OD600); conditions: OD600, medium = 100, MH II broth, 37 °C, peptide 200 µM mixed 50 µL + 50 µL with bacteria, Figure 7: 48 h; for Bacterial growth relative to medium, E. coli, replicate 1: replicate column 1; for Bacterial growth relative to medium, E. coli, replicate 2: replicate column 2; for Bacterial growth relative to medium, E. coli, replicate 3: replicate column 3
A/Hessen/1/2003 (H3N2) = format: cell-based, influenza virus
[7] = tested on: Listeria monocytogenes DSM 20600; test: Antibacterial growth assay (OD600); conditions: OD600, medium = 100, MH II broth, 37 °C, peptide 200 µM mixed 50 µL + 50 µL with bacteria, Figure 7: 48 h; for Bacterial growth relative to medium, L. monocytogenes, replicate 1: replicate column 1; for Bacterial growth relative to medium, L. monocytogenes, replicate 2: replicate column 2; for Bacterial growth relative to medium, L. monocytogenes, replicate 3: replicate column 3
[8] = tested on: Pseudomonas aeruginosa DSM 50071; test: Antibacterial growth assay (OD600); conditions: OD600, medium = 100, MH II broth, 37 °C, peptide 200 µM mixed 50 µL + 50 µL with bacteria, Figure 7: 48 h; for Bacterial growth relative to medium, P. aeruginosa (50071), replicate 1: replicate column 1; for Bacterial growth relative to medium, P. aeruginosa (50071), replicate 2: replicate column 2; for Bacterial growth relative to medium, P. aeruginosa (50071), replicate 3: replicate column 3
[9] = tested on: Staphylococcus aureus DSM 2569; test: Antibacterial growth assay (OD600); conditions: OD600, medium = 100, MH II broth, 37 °C, peptide 200 µM mixed 50 µL + 50 µL with bacteria, Figure 7: 48 h; for Bacterial growth relative to medium, S. aureus, replicate 1: replicate column 1; for Bacterial growth relative to medium, S. aureus, replicate 2: replicate column 2; for Bacterial growth relative to medium, S. aureus, replicate 3: replicate column 3

Sequence	Antibacterial activity over the panel (in words) [1]	Bacterial growth relative to medium, M. luteus, replicate 1 [2]	Bacterial growth relative to medium, M. luteus, replicate 2 [2]	Bacterial growth relative to medium, M. luteus, replicate 3 [2]	Bacterial growth relative to medium, S. epidermidis, replicate 1 [3]	Bacterial growth relative to medium, S. epidermidis, replicate 2 [3]	Bacterial growth relative to medium, S. epidermidis, replicate 3 [3]	Viability of infected cells relative to aprotinin, Replicate 1 [4]	Viability of infected cells relative to aprotinin, Replicate 2 [4]	Viability of infected cells relative to aprotinin, Replicate 3 [4]	Bacterial growth relative to medium, P. aeruginosa (1117), replicate 1 [5]	Bacterial growth relative to medium, P. aeruginosa (1117), replicate 2 [5]	Bacterial growth relative to medium, P. aeruginosa (1117), replicate 3 [5]	Viability of infected cells relative to aprotinin, Replicate 1 (A/Hamburg/05/2009 (H1N1))	Viability of infected cells relative to aprotinin, Replicate 2 (A/Hamburg/05/2009 (H1N1))	Viability of infected cells relative to aprotinin, Replicate 3 (A/Hamburg/05/2009 (H1N1))	Bacterial growth relative to medium, E. coli, replicate 1 [6]	Bacterial growth relative to medium, E. coli, replicate 2 [6]	Bacterial growth relative to medium, E. coli, replicate 3 [6]	Viability of infected cells relative to aprotinin, Replicate 1 (A/Hessen/1/2003 (H3N2))	also measured
SLLGLLDVVKNKVGQI [LS-AMP-A5]	inhibited the growth of most of the bacteria except two	73.1884	97.1848	36.1549	62.884	53.6633	71.8202	0.1132	0.06127	0.06301	63.186	51.5489	62.0721	0.0613	0.03494	0.03984	99.4801	69.6408	26.4544	0.17	Antibacterial activity (in words) [2]: no activity; Viability of infected cells relative to aprotinin, Replicate 2 (A/Hessen/1/2003 (H3N2)): 0.06482; Viability of infected cells relative to aprotinin, Replicate 3 (A/Hessen/1/2003 (H3N2)): 0.08289; Viability of infected cells relative to aprotinin, Replicate 4 (A/Hessen/1/2003 (H3N2); […], replicate 4 (additional internal control)): 0.1822; Viability of infected cells relative to aprotinin, Replicate 5 (A/Hessen/1/2003 (H3N2); […], replicate 5 (additional internal control)): 0.1791; Viability of infected cells relative to aprotinin, Replicate 6 (A/Hessen/1/2003 (H3N2); […], replicate 6 (additional internal control)): 0.1761; Bacterial growth relative to medium, L. monocytogenes, replicate 1 [7]: 122.608; Bacterial growth relative to medium, L. monocytogenes, replicate 2 [7]: 80.283; Bacterial growth relative to medium, L. monocytogenes, replicate 3 [7]: 61.98; Bacterial growth relative to medium, P. aeruginosa (50071), replicate 1 [8]: 93.2773; Bacterial growth relative to medium, P. aeruginosa (50071), replicate 2 [8]: 109.79; Bacterial growth relative to medium, P. aeruginosa (50071), replicate 3 [8]: 85.8852; Bacterial growth relative to medium, S. aureus, replicate 1 [9]: 55.1989; Bacterial growth relative to medium, S. aureus, replicate 2 [9]: 62.917; Bacterial growth relative to medium, S. aureus, replicate 3 [9]: 88.627
SLLGLLDVVKSKVGQTGLL [LS-AMP-A18]	largely inactive	143.237	115.766	65.7102	95.0126	84.2348	89.1297	0.06546	0.04295	0.0512	87.8796	68.3606	68.2151	0.03159	0.03911	0.01637	110.572	96.6395	68.0936	0.1207	Viability of infected cells relative to aprotinin, Replicate 2 (A/Hessen/1/2003 (H3N2)): 0.1378; Bacterial growth relative to medium, L. monocytogenes, replicate 1 [7]: 145.215; Bacterial growth relative to medium, L. monocytogenes, replicate 2 [7]: 105.128; Bacterial growth relative to medium, L. monocytogenes, replicate 3 [7]: 13.7733; Bacterial growth relative to medium, P. aeruginosa (50071), replicate 1 [8]: 102.836; Bacterial growth relative to medium, P. aeruginosa (50071), replicate 2 [8]: 105.708; Bacterial growth relative to medium, P. aeruginosa (50071), replicate 3 [8]: 87.0813; Bacterial growth relative to medium, S. aureus, replicate 1 [9]: 75; Bacterial growth relative to medium, S. aureus, replicate 2 [9]: 66.2525; Bacterial growth relative to medium, S. aureus, replicate 3 [9]: 80.9203
SLLGLLDVVKNTVGQTGLL [LS-AMP-A8]	inhibited the growth of most of the bacteria except two	72.2222	103.716	73.0273	79.7615	73.3026	77.5582	0.03065	0.0169	0.06181	76.1322	81.7612	75.3667	0.02555	0.01502	0.01283	91.7388	101.043	53.4577	0.08185	Antibacterial activity (in words) [2]: no activity; Viability of infected cells relative to aprotinin, Replicate 2 (A/Hessen/1/2003 (H3N2)): 0.1031; Viability of infected cells relative to aprotinin, Replicate 3 (A/Hessen/1/2003 (H3N2)): 0.0008759; Bacterial growth relative to medium, L. monocytogenes, replicate 1 [7]: 57.9391; Bacterial growth relative to medium, L. monocytogenes, replicate 2 [7]: 71.2645; Bacterial growth relative to medium, L. monocytogenes, replicate 3 [7]: 69.2971; Bacterial growth relative to medium, P. aeruginosa (50071), replicate 1 [8]: 99.79; Bacterial growth relative to medium, P. aeruginosa (50071), replicate 2 [8]: 113.132; Bacterial growth relative to medium, P. aeruginosa (50071), replicate 3 [8]: 91.0686; Bacterial growth relative to medium, S. aureus, replicate 1 [9]: 67.0732; Bacterial growth relative to medium, S. aureus, replicate 2 [9]: 73.4467; Bacterial growth relative to medium, S. aureus, replicate 3 [9]: 85.2226

Source: PMC10221074, “Functional Profiling of the A-Family of Venom Peptides from the Wolf Spider Lycosa shansia” (Toxins, 2023)
